Test results: patent publication US8232406B2, “c-MET protein kinase inhibitors” (Vertex Pharmaceuticals Incorporated, priority 2006, dated 2012)

Target: c-MET (Homo sapiens, UniProt P08581)
Assay: Ki determination for the inhibition of c-MET (standard radiometric 33P-ATP kinase assay, polyE4Y substrate)
Format: biochemical
Conditions: 1.0 nM c-Met, 35 μM ATP, 0.5 mg/mL polyE4Y, 20 min; competitive tight-binding fit
Protocol: Ki Determination for the Inhibition of c-MET
Compounds of the invention were screened for their ability to inhibit c-MET kinase activity using a standard radiometric assay. Briefly, in this kinase assay the transfer of the terminal ^33P-phosphate in ^33P-ATP to substrate polyE4Y is interrogated. The assay was carried out in 96-well plates to a final volume of 100 μL per well containing 1.0 nM c-Met, 100 mM HEPES (pH 7.5), 10 mM MgCl2, 25 mM NaCl, 0.01% BSA, 1 mM DTT, 0.5 mg/mL polyE4Y, and 35 μM ATP. Accordingly, compounds of the invention were dissolved in DMSO to make 10 mM initial stock solutions. Serial dilutions in DMSO were then made to obtain the final solutions for the assay. A 1.5 μL aliquot of DMSO or inhibitor in DMSO was added to each well. The reaction was initiated by the addition of ^33P-ATP and polyE4Y (obtained from Sigma). After 20 min, the reaction was quenched with 50 μL of 30% trichloroacetic acid (TCA) containing 4 mM ATP. The reaction mixture was transferred to the 0.66 mm GF filter plates (Corning) and washed three times with 5% TCA. Following the addition of 50 μL of Ultimate Gold™ high efficiency scintillant (Packard Bioscience), the samples were counted in a Packard TopCount NXT Microplate Scintillation and Luminescence Counter (Packard BioScience). The Ki values were calculated using Microsoft Excel Solver macros to fit the data to the kinetic model for competitive tight-binding inhibition.

Sequence of c-MET (P08581 25-1390): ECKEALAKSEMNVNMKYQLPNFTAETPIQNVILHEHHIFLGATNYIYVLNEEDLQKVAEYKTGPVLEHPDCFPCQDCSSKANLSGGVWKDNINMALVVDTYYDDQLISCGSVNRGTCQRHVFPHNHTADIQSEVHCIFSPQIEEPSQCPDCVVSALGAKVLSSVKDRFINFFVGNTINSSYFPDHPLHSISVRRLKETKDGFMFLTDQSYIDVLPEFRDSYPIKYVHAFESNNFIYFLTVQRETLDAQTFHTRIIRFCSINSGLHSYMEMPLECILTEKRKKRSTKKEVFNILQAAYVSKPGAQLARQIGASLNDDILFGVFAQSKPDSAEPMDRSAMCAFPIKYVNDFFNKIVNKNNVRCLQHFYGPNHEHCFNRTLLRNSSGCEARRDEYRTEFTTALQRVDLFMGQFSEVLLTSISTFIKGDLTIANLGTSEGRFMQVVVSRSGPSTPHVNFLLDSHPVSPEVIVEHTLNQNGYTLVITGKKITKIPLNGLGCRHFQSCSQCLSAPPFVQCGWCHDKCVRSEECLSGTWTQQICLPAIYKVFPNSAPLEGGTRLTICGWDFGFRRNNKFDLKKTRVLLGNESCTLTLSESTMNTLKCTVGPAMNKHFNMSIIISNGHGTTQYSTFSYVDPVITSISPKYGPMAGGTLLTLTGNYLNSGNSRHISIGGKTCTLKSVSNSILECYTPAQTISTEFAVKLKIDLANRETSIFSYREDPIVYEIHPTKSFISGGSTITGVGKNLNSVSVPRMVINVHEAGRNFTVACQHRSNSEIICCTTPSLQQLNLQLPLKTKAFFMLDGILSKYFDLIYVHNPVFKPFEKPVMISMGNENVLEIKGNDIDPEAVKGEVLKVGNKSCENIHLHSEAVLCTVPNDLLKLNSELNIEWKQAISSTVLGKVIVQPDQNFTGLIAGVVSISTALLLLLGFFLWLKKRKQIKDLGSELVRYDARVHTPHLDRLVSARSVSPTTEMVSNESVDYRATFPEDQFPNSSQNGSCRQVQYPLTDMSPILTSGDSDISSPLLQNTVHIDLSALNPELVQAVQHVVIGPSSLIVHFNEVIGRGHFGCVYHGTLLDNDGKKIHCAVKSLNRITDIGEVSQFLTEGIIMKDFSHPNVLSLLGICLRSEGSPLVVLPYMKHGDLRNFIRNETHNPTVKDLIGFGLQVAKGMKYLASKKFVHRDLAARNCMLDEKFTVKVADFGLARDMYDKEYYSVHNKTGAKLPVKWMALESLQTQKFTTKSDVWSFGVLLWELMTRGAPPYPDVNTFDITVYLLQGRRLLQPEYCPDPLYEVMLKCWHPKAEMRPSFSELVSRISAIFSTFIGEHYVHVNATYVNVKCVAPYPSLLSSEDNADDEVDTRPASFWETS

Row | Compound | Ki [nM]
1 | COc1c(F)cccc1-n1nnnc1-c1cc(-c2ccc(CN(C)C)cc2)cnc1N [I-A-589] | ≤ 100
2 | CC(C)(O)Cn1cc(-c2cnc(N)c(-c3nnnn3-c3cccc(F)c3F)c2)cn1 [I-A-348] | ≤ 100
3 | COC(=O)[C@H](CC(C)C)NC(=O)Nc1cccc(-c2cnc(N)c(-c3nnnn3-c3cccc(F)c3F)c2)c1 [I-A-326] | 100 to 1000
4 | Nc1ncc(-c2ccn(C3CCNCC3)c2)cc1-c1nnnn1-c1cccc(Cl)c1F [I-A-652] | ≤ 100
5 | Nc1ncc(-c2cnn(C3CCNCC3)c2)cc1-c1nnnn1-c1cccc(Cl)c1Cl [I-A-371] | ≤ 100
6 | CCCN1CCc2cc(-c3cnc(N)c(-c4nnnn4-c4cccc(F)c4F)c3)sc2CC1 [I-A-519] | ≤ 100
7 | Nc1cccc(-c2cnc(N)c(-c3nnnn3-c3cccc(F)c3F)c2)c1 [I-A-201] | ≤ 100
8 | COc1ccc(-c2cnc(N)c(-c3nncn3-c3cccc(Cl)c3Cl)c2)cc1 [I-A-69] | 100 to 1000
9 | CN(C)Cc1ccc(-c2cnc(N)c(-c3nn(C4CCCCC4)cc3-c3cccc(Cl)c3Cl)c2)cc1 [I-B-11] | 100 to 1000
10 | Nc1ncc(-c2ccc(CN3CCCC3)cc2)cc1-c1nnnn1-c1c(F)ccc(F)c1F [I-A-380] | ≤ 100
11 | Nc1ncc(-c2cnn(C3CCOCC3)c2)cc1-c1nnnn1-c1cccc(F)c1F [I-A-396] | ≤ 100
12 | CN(C)Cc1ccc(-c2cnc(N)c(-c3nnnn3-c3cccc(Cl)c3)c2)cc1 [I-A-358] | 100 to 1000
13 | Nc1ncc(C2=CCN(C(=O)C3CCCNC3)CC2)cc1-c1nnnn1-c1cccc(F)c1F (centres unmarked) [I-A-423] | ≤ 100
14 | COCCOc1ccc(-c2cnc(N)c(-c3nnnn3-c3cccc(F)c3F)c2)cc1OCCOC [I-A-354] | ≤ 100
15 | CC1CN(Cc2ccc(-c3cnc(N)c(-c4nnnn4-c4cccc(Cl)c4Cl)c3)cc2)CC(C)O1 (centres unmarked) [I-A-103] | 100 to 1000
16 | CN(C)CCNC(=O)c1ccc(-c2cnc(N)c(-c3nnnn3-c3cccc(Cl)c3Cl)c2)cc1 [I-A-124] | ≤ 100
17 | CC(C)OC(=O)N1CC=C(c2cnc(N)c(-c3nnnn3-c3cccc(F)c3F)c2)CC1 [I-A-508] | ≤ 100
18 | Cc1nnc(-c2cc(-c3cnn(C4CCNCC4)c3)cnc2N)n1-c1cccc(Cl)c1F [I-A-454] | 100 to 1000
19 | Nc1ncc(-c2ccc(CN3CCOCC3)cc2)nc1-c1nncn1-c1cccc(F)c1F [I-A-5] | ≤ 100
20 | CCCS(=O)(=O)N1CCC(n2cc(-c3cnc(N)c(-c4nnnn4-c4cccc(Cl)c4F)c3)cn2)CC1 [I-A-446] | ≤ 100
21 | Nc1ccc(-c2cnc(N)c(-c3nnnn3-c3cccc(F)c3F)c2)cc1F [I-A-286] | ≤ 100
22 | Nc1ncc(-c2ccc(C3CCNCC3)s2)cc1-c1nnnn1-c1cccc(Cl)c1F [I-A-532] | ≤ 100
23 | COC(=O)C(c1ccc(-c2cnc(N)c(-c3nnnn3-c3cccc(F)c3F)c2)cc1)N1CCCC1 (centres unmarked) [I-A-208] | ≤ 100
24 | Nc1ncc(-c2ccc(C3CCNCC3)cc2)cc1-c1nnnn1-c1cccc(F)c1F [I-A-400] | ≤ 100
25 | Nc1ncc(-c2cnn(C3CCNCC3)c2)cc1-c1nnnn1-c1c(F)ccc(F)c1Cl [I-A-640] | ≤ 100
26 | Nc1ncc(C2=CCC(N)CC2)cc1-c1nnnn1-c1cccc(F)c1F (centres unmarked) [I-A-158] | ≤ 100

Row | Compound | Ki [nM]
27 | Nc1ncc(-c2ccc(CN3CCCC3)c(O)c2)cc1-c1nnnn1-c1cccc(F)c1F [I-A-391] | ≤ 100
28 | CN1CCN(c2ccc(-c3cnc(N)c(-c4nnnn4-c4cccc(Cl)c4Cl)c3)cc2)CC1 [I-A-85] | ≤ 100
29 | Nc1ncc(-c2cnn(C3CCOCC3)c2)cc1-c1nnnn1-c1cccc(Cl)c1F [I-A-397] | ≤ 100
30 | Nc1ncc(-c2ccc(CN3CCC[C@H]3CO)cc2)cc1-c1nnnn1-c1cccc(F)c1F [I-A-133] | ≤ 100
31 | Nc1ncc(-c2ccc(CN3CCN(CCO)CC3)cc2)cc1-c1nnnn1-c1cccc(Cl)c1Cl [I-A-104] | ≤ 100
32 | Nc1ncc(-c2cccnc2)cc1-c1nnnn1-c1c(Cl)cccc1Cl [I-A-609] | 100 to 1000
33 | CN(C)CCCN(C)Cc1ccc(-c2cnc(N)c(-c3nnnn3-c3cccc(Cl)c3Cl)c2)cc1 [I-A-95] | ≤ 100
34 | Nc1ncc(-c2cnn(C3CNC3)c2)cc1-c1nnnn1-c1cccc(Cl)c1F [I-A-650] | ≤ 100
35 | Cc1cccc(-c2cnc(N)c(-c3nnnn3-c3cccc(F)c3F)c2)c1 [I-A-242] | ≤ 100
36 | Nc1ncc(C2=CCN(C(=O)c3ccncc3)CC2)cc1-c1nnnn1-c1cccc(F)c1F [I-A-518] | ≤ 100
37 | CN(C)c1ccc(-c2cnc(N)c(-c3nncn3-c3cccc(Cl)c3Cl)c2)cc1 [I-A-72] | 100 to 1000
38 | Nc1ncc(-c2cccc(NC(=O)Nc3cccs3)c2)cc1-c1nnnn1-c1cccc(F)c1F [I-A-275] | 100 to 1000
39 | Nc1ncc(-c2ccc(N3CCCC3)nc2)nc1-c1nnc(O)n1-c1cccc(F)c1F [I-A-18] | 100 to 1000
40 | CC(=O)Nc1cc(-c2cnc(N)c(-c3nnnn3-c3cccc(F)c3F)c2)ccc1CN1CCCC1 [I-A-339] | ≤ 100
41 | COCCN1CCC(n2cc(-c3cnc(N)c(-c4nncn4-c4cccc(F)c4F)c3)cn2)CC1 [I-A-476] | ≤ 100
42 | Nc1ncc(-c2ccc(NC(=O)c3ccncc3)cc2)cc1-c1nnnn1-c1cccc(F)c1F [I-A-280] | ≤ 100
43 | CCOC(=O)N1CCc2cc(-c3cnc(N)c(-c4nnnn4-c4cccc(F)c4F)c3)sc2CC1 [I-A-480] | ≤ 100
44 | Nc1ncc(-c2nc3c(s2)CNCC3)nc1-c1nnnn1-c1cccc(F)c1F [I-A-537] | 100 to 1000
45 | COC[C@H]1CCCN1Cc1ccc(-c2cnc(N)c(-c3nnnn3-c3cccc(F)c3F)c2)cc1 [I-A-264] | ≤ 100
46 | CCNC(=O)Nc1nc2cc(-c3cnc(N)c(-c4nnnn4-c4cccc(Cl)c4Cl)c3)c(F)cc2[nH]1 [I-A-93] | 100 to 1000
47 | Nc1ncc(-c2ccc(CN3CCCC3)cc2)cc1-c1nnnn1-c1cc(F)cc(F)c1Cl [I-A-601] | ≤ 100
48 | Nc1cccc(-c2cnc(N)c(-c3nncn3-c3cccc(Cl)c3Cl)c2)c1 [I-A-68] | 100 to 1000
49 | CC(N)c1ccc(-c2cnc(N)c(-c3nnnn3-c3cccc(F)c3F)c2)cn1 (centres unmarked) [I-A-129] | ≤ 100
50 | Nc1ncc(-c2cccnc2)cc1-c1nccn1-c1cccc(Cl)c1Cl [I-A-65] | ≤ 100
51 | Nc1ncc(-c2ccc3c(c2)CNCC3)cc1-c1nnnn1-c1cccc(F)c1F [I-A-456] | ≤ 100
52 | Nc1ncc(-c2ccc3c(c2)CC(=O)N3)cc1-c1nnnn1-c1cccc(F)c1F [I-A-188] | ≤ 100

Row | Compound | Ki [nM]
53 | CS(=O)(=O)c1ccc(-c2cnc(N)c(-c3nnnn3-c3cccc(F)c3F)c2)cc1 [I-A-250] | ≤ 100
54 | Nc1ncc(-c2ccc(CO)cc2)cc1-c1nnnn1-c1cccc(F)c1F [I-A-232] | ≤ 100
55 | Nc1ncc(-c2cnn([C@H]3CCNC3)c2)nc1-c1nnnn1-c1cccc(F)c1F [I-A-536] | ≤ 100
56 | Nc1ncc(-c2ccc3c(c2)CCNC3)cc1-c1nnnn1-c1cccc(F)c1F [I-A-509] | 100 to 1000
57 | C[C@@H]1CC[C@@H](C)N1Cc1ccc(-c2cnc(N)c(-c3nnnn3-c3cccc(F)c3F)c2)cc1 [I-A-267] | ≤ 100
58 | CN(C)Cc1ccc(-c2cnc(N)c(-c3nnsc3-c3cccc(Cl)c3Cl)c2)cc1 [I-C-5] | ≤ 100
59 | CN1CCOc2cc(-c3cnc(N)c(-c4nnnn4-c4cccc(F)c4F)c3)ccc21 [I-A-289] | 100 to 1000
60 | CC(C)N1CCC(n2cc(-c3cnc(N)c(-c4nncn4-c4cccc(Cl)c4F)c3)cn2)CC1 [I-A-471] | ≤ 100
61 | Nc1ncc(-c2ccc(C3CCNCC3)s2)cc1-c1nnnn1-c1cccc(Cl)c1Cl [I-A-416] | ≤ 100
62 | Nc1ncc(-c2ccc(CN3CCCC3)s2)cc1-c1nnnn1-c1cccc(F)c1F [I-A-186] | ≤ 100
63 | Nc1ncc(-c2ccncc2)cc1-c1nncn1-c1cccc(Cl)c1Cl [I-A-71] | 100 to 1000
64 | COc1c(F)cccc1-n1nnnc1-c1cc(-c2cnn(C3CCNCC3)c2)cnc1N [I-A-638] | 100 to 1000
65 | COc1cc(-c2cnc(N)c(-c3nnnn3-c3cccc(F)c3F)c2)ccc1O [I-A-299] | ≤ 100
66 | CC(c1ccc(-c2cnc(N)c(-c3nnnn3-c3cccc(F)c3F)c2)s1)N1CCCC1 (centres unmarked) [I-A-262] | ≤ 100
67 | Nc1ncc(-c2cnn(C3CCNCC3)c2)cc1-c1nnnn1-c1cc(F)cc(F)c1Cl [I-A-634] | 100 to 1000
68 | Nc1ncc(-c2ccc(CN3CCCC3)cc2)cc1-c1nnnn1-c1cc(Cl)cc(Cl)c1 [I-A-597] | 100 to 1000
69 | Nc1ncc(-c2cccc(NC(=O)N3CCCC3)c2)cc1-c1nnnn1-c1cccc(F)c1F [I-A-269] | 100 to 1000
70 | CC(=O)Nc1cc(-c2cnc(N)c(-c3nnnn3-c3cccc(Cl)c3F)c2)ccc1CN1CCCC1 [I-A-398] | ≤ 100
71 | Nc1ncc(-c2ccc(CCN3CCCC3)cc2)cc1-c1nnnn1-c1cccc(F)c1F [I-A-181] | ≤ 100
72 | CCN(CC)Cc1ccc(-c2cnc(N)c(-c3nnnn3-c3cccc(F)c3F)c2)cc1 [I-A-66] | ≤ 100
73 | Nc1ncc(-c2ccoc2)cc1-c1nnnn1-c1cccc(F)c1F [I-A-497] | ≤ 100
74 | Nc1ncc(C2=CCN(C(=O)OC3CCOC3)CC2)cc1-c1nnnn1-c1cccc(F)c1F (centres unmarked) [I-A-520] | ≤ 100
75 | Nc1ncc(-c2cnn(C3CCNCC3)c2)cc1-c1nnnn1-c1cc(Cl)ccc1Cl [I-A-636] | 100 to 1000
76 | Cn1cc(-c2cccc(Cl)c2Cl)c(-c2cc(-c3cnn(C4CCNCC4)c3)cnc2N)n1 [I-B-22] | ≤ 100
77 | CC(C)Oc1ccc(-c2cnc(N)c(-c3nnnn3-c3cccc(F)c3F)c2)cc1 [I-A-240] | 100 to 1000
